In patent US9763963B2, “Topically active steroids for use in interstitial pulmonary fibrosis” (Soligenix, Inc., priority 2008, dated 2017):
Several values for one entry are separate records, joined by “and”; a condition that tells them apart may be missing. Equal entries are not always repeated.

How the values were obtained:
[1] = system: pulmonary function (FVC, FEV1, TLC, DLCO); assay: pulmonary function testing after allogeneic HCT, oral BDP versus placebo; type: in vivo, human
Source text: Patients whose symptoms were controlled at study day ten continued on study drug while the prednisone dose was rapidly tapered. Patients whose symptoms required additional prednisone were considered treatment failures. Study drug was discontinued on the day of treatment failure. The duration of treatment with study drug was 30 days with a 10-day follow-up period in the first trial and 50 days with a 30-day follow-up period in the second trial.
Pulmonary function assessments included forced vital capacity (FVC), one-second forced expiratory volume (FEV1), total lung capacity (TLC), and carbon monoxide diffusion capacity (DLCO), which was adjusted for hemoglobin level at the time PFTs were obtained. All PFT values were expressed as a percent of the predicted value calculated according to published equations (Crapo R O et al., Am Rev Respir Dis, 1981; 123:659-664; Crapo R O et al., Am Rev Respir Dis, 1981; 123:185-189). Pretransplantation and Day 80 PFTs were obtained, regardless of the presence or absence of symptoms. After discharge, patients were encouraged to return at one year after transplantation, at which time another PFT was obtained. For purposes of the current study, PFTs performed between days 60 and 100 were considered as valid for the Day 80 PFT and tests performed between days 265 and 465 as valid for the one-year PFT. Change in lung function was assessed by comparing PFT parameters performed prior to start of conditioning to those obtained post-transplantation at Day 80 and one year. Analysis of change in lung function was done on an intent-to-treat basis, by randomization assignment to oral BDP or placebo, with maintenance of the study blind.

[2] = system: noninfectious pulmonary complications; assay: noninfectious pulmonary complications after randomization (record review); type: in vivo, human
Source text: (§1) While blinded to randomization assignment, investigators reviewed all patients' pulmonary radiologic records accumulated from the time of randomization to one year after transplantation. The medical records of all patients with abnormal pulmonary radiological findings were reviewed to determine whether the pulmonary disease was a clinically significant noninfectious or infectious syndrome. Clinically significant noninfectious pulmonary syndromes included idiopathic pneumonia syndrome (IPS), defined as widespread alveolar injury in the absence of active lower respiratory tract infection after HCT (Freudenberger T D et al., Blood, 2003; 102:3822-3828, diffuse alveolar hemorrhage (DAH), defined as IPS with bronchioalveolar lavage showing progressively bloodier return, or biopsy-proven cryptogenic organizing pneumonia (COP) otherwise known as bronchiolitis obliterans organizing pneumonia (BOOP). Clinically significant pulmonary infection required microbiologic documentation of an infectious agent in the respiratory tract via bronchoscopy or resolution of pulmonary abnormalities after empirical antibiotic therapy with no addition of immunosuppressive agents.

pulmonary infection = assay: pulmonary infections after randomization (record review); type: in vivo, human
Source text: as §1

[3] = bioavailability study of oral BDP, given orally and intravenously to 12 healthy subjects
[4] = system: gastrointestinal graft-versus-host disease (GVHD); details: cited from earlier work
[5] = BDP and 17-BMP in plasma of right atrial blood after oral BDP; details: oral BDP 2 mg
Method: Pharmacokinetic parameters were calculated using WinNonlin v. […] Plasma concentration-time data were plotted and non-compartmental parameters were calculated using the linear trapezoidal rule. Estimates for half-lives were obtained using regression analysis by specifying an appropriate range of time points for the most linear portions of the log concentration-linear time data.

[6] = pre-HCT baseline to transplant day 80

## beclomethasone 17,21-dipropionate [BDP]
[1]; 32 patients with data, placebo 15.27%, p=0.11
  DLCO: mean decrease from baseline to one year: 7.67%
[1]; mean, n = 33
  DLCO, pulmonary function at one year: 78.1% of predicted normal values
  FEV1, pulmonary function at one year: 85.9% of predicted normal values
  FVC, pulmonary function at one year: 89.4% of predicted normal values
  TLC, pulmonary function at one year: 95.7% of predicted normal values
[1]; mean, n = 54
  DLCO, pulmonary function at Day 80: 86.0% of predicted normal values
[1]; mean, n = 55
  TLC, pulmonary function at Day 80: 96.9% of predicted normal values
[1]; mean, n = 56
  FEV1, pulmonary function at Day 80: 90.3% of predicted normal values
  FVC, pulmonary function at Day 80: 93.8% of predicted normal values
[1]; pre-HCT baseline to day 80, percent of predicted, range −22, +34, p 0.48
  FEV1: mean change: −0.05
[1]; pre-HCT baseline to day 80, percent of predicted, range −25, +57, p 0.23
  TLC: mean change: +1.41
[1]; pre-HCT baseline to day 80, percent of predicted, range −30, +35, p 0.26
  FVC: mean change: +0.34
[1]; [6]
  FEV1: % of patients who experienced a decrease: (50) %
  FVC: % of patients who experienced a decrease: (50) %
  TLC: % of patients who experienced a decrease: (58) %
[1]; pre-HCT baseline to transplant day 80, p 0.02
  DLCO: N, proportion of patients who experienced a decrease: 27 of 49 and 27/49
[1]; pre-HCT baseline to transplant day 80, p 0.66
  FVC: N, proportion of patients who experienced a decrease: 25/50
[1]; pre-HCT baseline to transplant day 80, p 0.83
  FEV1: N, proportion of patients who experienced a decrease: 25/50
[1]; pre-HCT baseline to transplant day 80, p 0.88
  TLC: N, proportion of patients who experienced a decrease: 29/50
[2]; after Day 200
  noninfectious events: four
[2]; first 200 days after randomization, 60 patients, placebo four
  cases of noninfectious pulmonary complications: no cases
[2]; in order: COP/BOOP, IPS, bronchiolitis obliterans syndrome, DAH
  day of noninfectious event: 207 days and 212 days and 244 days and 269 days
Pulmonary infection; first 200 days after randomization
  cases of pulmonary infection: 6
Pulmonary infection; first year after randomization, 60 patients, placebo 11
  cases of pulmonary infection: 8
Pulmonary infection; in vivo
  share of first-year pulmonary infections that occurred in the first 200 days: 75%
[3]; oral BDP 2 mg
  intravenous dexamethasone dose of equivalent systemic exposure: less than 1 mg
  oral prednisone dose of equivalent systemic exposure: 2.5 mg
[4]; 80-day study period, placebo 12/67 (18%)
  patients who developed noninfectious pulmonary infiltrative disorders: 0/62
[4]; most recent trial, placebo 9%
  multiple bacteremic episodes: none
[4]; most recent trial, placebo 14%
  fungal infections: 7%
[4]; most recent trial, placebo 39%
  cytomegalovirus reactivations: 28%
[4]; one-year post-randomization
  reduction in mortality risk: 45%

## CCC(=O)O[C@]1(C(=O)CO)[C@@H](C)C[C@H]2[C@@H]3CCC4=CC(=O)C=C[C@]4(C)[C@@]3(Cl)[C@@H](O)C[C@@]21C [17-BMP, 17-beclomethasone monopropionate]
[5]; study Day 50, four patients
  time of peak concentration in right atrial blood, median: 1.5 h
[5]; study Day 50, range 3.1-6.8
  median half-life: 6.3 h
[5]; study Day 50, range 632-3701
  median Cm: 1738 pg/mL
[3]; active metabolite after oral BDP, unpublished data
  total oral bioavailability: 21-41%
